# Where “and” joins values, the source holds several entries; their conditions need not be identical. Identical values can stand only once.
# System: NCI-H23 complex spheroids with HUVEC/MSC, viability
# Experiment: Anticancer human tumor NCI-H23 cell line growth inhibition [RAS];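 note: spheroids exposed to compound for 7 days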;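 for viability, T/C: 100% = DMSO vehicle control viability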
# Conditions: for viability, T/C: stronger effect = lower value
# Outline: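 Tumour cells grown as complex spheroids with HUVEC endothelial cells and mesenchymal stem cells, treated with RAS pathway inhibitor combinations. Each agent spans half-log steps from near clinical Cmax, or 10 microM where Cmax is unknown.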
# [1] = curve of first compound, second compound 0.0316 µM
# [2] = curve of first compound, second compound 0.1 µM
# [3] = curve of first compound, second compound 0.316 µM
# [4] = curve of first compound, second compound 1 µM
# [5] = curve of first compound, second compound 3.16 µM
# [6] = curve of first compound, second compound 10 µM
# [7] = second compound 0.0316 µM, first compound 0.0316 µM
# [8] = second compound 0.0316 µM, first compound 0.1 µM
# [9] = second compound 0.0316 µM, first compound 0.316 µM
# [10] = second compound 0.0316 µM, first compound 1 µM
# [11] = second compound 0.0316 µM, first compound 3.16 µM
# [12] = second compound 0.0316 µM, first compound 10 µM
# [13] = second compound 0.1 µM, first compound 0.0316 µM
# [14] = second compound 0.1 µM, first compound 0.1 µM
# [15] = second compound 0.1 µM, first compound 0.316 µM
# [16] = second compound 0.1 µM, first compound 1 µM
# [17] = second compound 0.1 µM, first compound 3.16 µM
# [18] = second compound 0.1 µM, first compound 10 µM
# [19] = second compound 0.316 µM, first compound 0.0316 µM
# [20] = second compound 0.316 µM, first compound 0.1 µM
# [21] = second compound 0.316 µM, first compound 0.316 µM
# [22] = second compound 0.316 µM, first compound 1 µM
# [23] = second compound 0.316 µM, first compound 3.16 µM
# [24] = second compound 0.316 µM, first compound 10 µM
# [25] = second compound 1 µM, first compound 0.0316 µM
# [26] = second compound 1 µM, first compound 0.1 µM
# [27] = second compound 1 µM, first compound 0.316 µM
# [28] = second compound 1 µM, first compound 1 µM
# [29] = second compound 1 µM, first compound 3.16 µM
# [30] = second compound 1 µM, first compound 10 µM
# [31] = second compound 3.16 µM, first compound 0.0316 µM
# [32] = second compound 3.16 µM, first compound 0.1 µM
# [33] = second compound 3.16 µM, first compound 0.316 µM
# [34] = second compound 3.16 µM, first compound 1 µM
# [35] = second compound 3.16 µM, first compound 3.16 µM
# [36] = second compound 3.16 µM, first compound 10 µM
# [37] = second compound 10 µM, first compound 0.0316 µM
# [38] = second compound 10 µM, first compound 0.1 µM
# [39] = second compound 10 µM, first compound 0.316 µM
# [40] = second compound 10 µM, first compound 1 µM
# [41] = second compound 10 µM, first compound 3.16 µM
# [42] = second compound 10 µM, first compound 10 µM
smiles,measurement,setting,value
C[C@@H](NC(=O)c1ncnc(N)c1Cl)c1ncc(C(=O)Nc2cc(C(F)(F)F)c(Cl)cn2)s1 + C#Cc1c(F)ccc2cc(O)cc(-c3ncc4c(N5CC6CCC(C5)N6)nc(OCC56CCCN5CC(F)C6)nc4c3F)c12,IC50,[1],> 10000 nM
same,IC50,[2],> 10000 nM
same,IC50,[3],> 10000 nM
same,IC50,[4],> 10000 nM
same,IC50,[5],> 10000 nM
same,IC50,[6],< 31.6 nM
same,"viability, T/C",[7],110%
same,"viability, T/C",[8],112%
same,"viability, T/C",[9],98.9%
same,"viability, T/C",[10],99.9%
same,"viability, T/C",[11],92.3%
same,"viability, T/C",[12],66.5%
same,"viability, T/C",[13],103%
same,"viability, T/C",[14],110%
same,"viability, T/C",[15],105%
same,"viability, T/C",[16],99.5%
same,"viability, T/C",[17],91.8%
same,"viability, T/C",[18],66.2%
same,"viability, T/C",[19],104%
same,"viability, T/C",[20],110%
same,"viability, T/C",[21],106%
same,"viability, T/C",[22],99.4%
same,"viability, T/C",[23],85.6%
same,"viability, T/C",[24],74.4%
same,"viability, T/C",[25],90.3%
same,"viability, T/C",[26],96.2%
same,"viability, T/C",[27],93.1%
same,"viability, T/C",[28],86.1%
same,"viability, T/C",[29],83.3%
same,"viability, T/C",[30],60.7%
same,"viability, T/C",[31],67.2%
same,"viability, T/C",[32],69.3%
same,"viability, T/C",[33],60.8%
same,"viability, T/C",[34],56.9%
same,"viability, T/C",[35],53.6%
same,"viability, T/C",[36],52.5%
same,"viability, T/C",[37],38.7%
same,"viability, T/C",[38],49.5%
same,"viability, T/C",[39],46.3%
same,"viability, T/C",[40],41.1%
same,"viability, T/C",[41],48.1%
same,"viability, T/C",[42],38.3%
CC(Nc1ccc2c(c1)OCCn1cc(N3C(=O)OCC3C(F)F)nc1-2)C(N)=O (centres undefined),"viability, T/C",compound 0.0316 µM,93.5% [middle of 4 runs]
same,"viability, T/C",compound 0.1 µM,89.5% [middle of 4 runs]
same,"viability, T/C",compound 0.316 µM,70.2% and 82.1% and 76.3% (2×)
same,"viability, T/C",compound 1 µM,78.9% [middle of 4 runs]
same,"viability, T/C",compound 3.16 µM,71.8% [middle of 4 runs]
same,"viability, T/C",compound 10 µM,69.6% [middle of 4 runs]
same,IC50,curve of compound,> 10000 nM
CCn1c(-c2cccnc2C(C)OC)c2c3cc(ccc31)N1CCOC(CC(NC(=O)C(C(C)C)N(C)C(=O)C3(F)CCN(C(=O)C#CC(C)(C)N(C)C)CC3)C(=O)N3CCCC(N3)C(=O)OCC(C)(C)C2)C1 (centres undefined),"viability, T/C",compound 0.000949 µM,32.4% [middle of 8 runs]
same,"viability, T/C",compound 0.00949 µM,30.6% [middle of 8 runs]
same,"viability, T/C",compound 0.03 µM,31.6% [middle of 8 runs]
same,"viability, T/C",compound 0.0949 µM,30.8% [middle of 8 runs]
same,"viability, T/C",compound 0.3 µM,28.1% [middle of 8 runs]
same,IC50,"compound alone, run of 07/09/2024",< 0.949 nM and 5.92 nM
CC(Nc1ccc2c(c1)OCCn1cc(N3C(=O)OCC3C(F)F)nc1-2)C(N)=O (centres undefined) + C#Cc1c(F)ccc2cc(O)cc(-c3ncc4c(N5CC6CCC(C5)N6)nc(OCC56CCCN5CC(F)C6)nc4c3F)c12,IC50,[1],> 10000 nM
same,IC50,[2],> 10000 nM
same,IC50,[3],> 10000 nM
same,IC50,[4],> 10000 nM
same,IC50,[5],207 nM
same,IC50,[6],< 31.6 nM
same,"viability, T/C",[7],96.5%
same,"viability, T/C",[8],112%
same,"viability, T/C",[9],74.5%
same,"viability, T/C",[10],70.5%
same,"viability, T/C",[11],62.9%
same,"viability, T/C",[12],74%
same,"viability, T/C",[13],108%
same,"viability, T/C",[14],119%
same,"viability, T/C",[15],77.3%
same,"viability, T/C",[16],69.3%
same,"viability, T/C",[17],64.9%
same,"viability, T/C",[18],71.2%
same,"viability, T/C",[19],107%
same,"viability, T/C",[20],107%
same,"viability, T/C",[21],66.2%
same,"viability, T/C",[22],66.8%
same,"viability, T/C",[23],63.7%
same,"viability, T/C",[24],60.9%
same,"viability, T/C",[25],98.8%
same,"viability, T/C",[26],86.5%
same,"viability, T/C",[27],60.8%
same,"viability, T/C",[28],54%
same,"viability, T/C",[29],49.5%
same,"viability, T/C",[30],63.8%
same,"viability, T/C",[31],61.2%
same,"viability, T/C",[32],63.6%
same,"viability, T/C",[33],39.8%
same,"viability, T/C",[34],40.4%
same,"viability, T/C",[35],43.1%
same,"viability, T/C",[36],48.1%
same,"viability, T/C",[37],36.6%
same,"viability, T/C",[38],38.7%
same,"viability, T/C",[39],27.5%
same,"viability, T/C",[40],23.4%
same,"viability, T/C",[41],30.8%
same,"viability, T/C",[42],24.2%
Nc1ccn(C2OC(CO)C(O)C2(F)F)c(=O)n1 (centres undefined) + CCn1c(-c2cccnc2C(C)OC)c2c3cc(ccc31)N1CCOC(CC(NC(=O)C(C(C)C)N(C)C(=O)C3(F)CCN(C(=O)C#CC(C)(C)N(C)C)CC3)C(=O)N3CCCC(N3)C(=O)OCC(C)(C)C2)C1,IC50,"curve of first compound, second compound 0.000949 µM",< 3.16 nM
same,IC50,"curve of first compound, second compound 0.003 µM",< 3.16 nM
same,IC50,"curve of first compound, second compound 0.00949 µM",< 3.16 nM
same,IC50,"curve of first compound, second compound 0.03 µM",< 3.16 nM
same,IC50,"curve of first compound, second compound 0.0949 µM",< 3.16 nM
same,IC50,"curve of first compound, second compound 0.3 µM",< 3.16 nM
same,"viability, T/C","second compound 0.000949 µM, first compound 0.00316 µM",11.4%
same,"viability, T/C","second compound 0.000949 µM, first compound 0.01 µM",1.89%
same,"viability, T/C","second compound 0.000949 µM, first compound 0.0316 µM",1.33%
same,"viability, T/C","second compound 0.000949 µM, first compound 0.1 µM",1.32%
same,"viability, T/C","second compound 0.000949 µM, first compound 0.316 µM",1.35%
same,"viability, T/C","second compound 0.000949 µM, first compound 1 µM",1.46%
same,"viability, T/C","second compound 0.003 µM, first compound 0.00316 µM",12.7%
same,"viability, T/C","second compound 0.003 µM, first compound 0.01 µM",1.78%
same,"viability, T/C","second compound 0.003 µM, first compound 0.0316 µM",1.61%
same,"viability, T/C","second compound 0.003 µM, first compound 0.1 µM",1.5%
same,"viability, T/C","second compound 0.003 µM, first compound 0.316 µM",1.63%
same,"viability, T/C","second compound 0.003 µM, first compound 1 µM",2.39%
same,"viability, T/C","second compound 0.00949 µM, first compound 0.00316 µM",14.5%
same,"viability, T/C","second compound 0.00949 µM, first compound 0.01 µM",1.69%
same,"viability, T/C","second compound 0.00949 µM, first compound 0.0316 µM",2.29%
same,"viability, T/C","second compound 0.00949 µM, first compound 0.1 µM",1.8%
same,"viability, T/C","second compound 0.00949 µM, first compound 0.316 µM",1.79%
same,"viability, T/C","second compound 0.00949 µM, first compound 1 µM",1.41%
same,"viability, T/C","second compound 0.03 µM, first compound 0.00316 µM",12.3%
same,"viability, T/C","second compound 0.03 µM, first compound 0.01 µM",1.86%
same,"viability, T/C","second compound 0.03 µM, first compound 0.0316 µM",1.31%
same,"viability, T/C","second compound 0.03 µM, first compound 0.1 µM",1.39%
same,"viability, T/C","second compound 0.03 µM, first compound 0.316 µM",1.75%
same,"viability, T/C","second compound 0.03 µM, first compound 1 µM",1.29%
same,"viability, T/C","second compound 0.0949 µM, first compound 0.00316 µM",7.86%
same,"viability, T/C","second compound 0.0949 µM, first compound 0.01 µM",1.71%
same,"viability, T/C","second compound 0.0949 µM, first compound 0.0316 µM",1.74%
same,"viability, T/C","second compound 0.0949 µM, first compound 0.1 µM",1.51%
same,"viability, T/C","second compound 0.0949 µM, first compound 0.316 µM",1.72%
same,"viability, T/C","second compound 0.0949 µM, first compound 1 µM",1.81%
same,"viability, T/C","second compound 0.3 µM, first compound 0.00316 µM",7.88%
same,"viability, T/C","second compound 0.3 µM, first compound 0.01 µM",1.67%
same,"viability, T/C","second compound 0.3 µM, first compound 0.0316 µM",1.78%
same,"viability, T/C","second compound 0.3 µM, first compound 0.1 µM",1.28%
same,"viability, T/C","second compound 0.3 µM, first compound 0.316 µM",1.59%
same,"viability, T/C","second compound 0.3 µM, first compound 1 µM",1.54%

# — PubChem BioAssay AID2060885 (Molecular Pharmacology Branch, DTP, NCI, 2025)
